According to patent publication US20250281512A1, “BUFFERING AGENT-CONTAINING COMPOSITIONS AND METHODS OF USING SAME” (KNOW BIO, LLC, priority 2022, published 2025):

Assay: Effect of buffer concentration on osmolality
Format: physicochemical
Procedure: The effect of buffer concentration on osmolality was measured for HEPES and potassium phosphate buffer systems and plotted in FIG. 8A. With HEPES, a higher buffer concentration can be achieved with a lower osmolality (slope 1.37 mOsmol/Kg per mMoles/L HEPES), as compared to phosphate buffers (slope 2.21 mOsmol/Kg per mMoles/L phosphate).

Row | Molecule | slope of osmolality against buffer concentration [mOsmol/Kg per mMoles/L]
1 | O=S(=O)(O)CCN1CCN(CCO)CC1 [HEPES, 4-(2-hydroxyethyl)-1-piperazineethanesulfonic acid] | 1.37
2 | phosphate | 2.21
